The results in this text go back to the NIST ThermoML archive (doi:10.1016/j.fluid.2008.07.012).

Numbers after ± are expanded uncertainties.

The conditions of the data set: Crystal; DTA.

`CC(C)CCC[C@@H](C)[C@H]1CC[C@H]2[C@@H]3CC=C4C[C@@H](OC(=O)c5ccccc5)CC[C@]4(C)[C@H]3CC[C@]12C` [3β-benzoyloxycholest-5-ene]: the Normal melting temperature worked out at 150 ± 1 °C.
The figure for `CCCC(=O)O[C@H]1CC[C@@]2(C)C(=CC[C@H]3[C@@H]4CC[C@H]([C@H](C)CCCC(C)C)[C@@]4(C)CC[C@@H]32)C1` [3β-butanoyloxycholest-5-ene] is 99 ± 1 °C.
